Data taken from patent US20250145640A1, “2,2-DIFLUORO-5H-[1,3]DIOXOLO[4,5-F]ISOINDOL-7-ONE DERIVATIVES AS PESTICIDES” (SYNGENTA CROP PROTECTION AG, priority 2021, published 2025).

Experiments:
Format in all cases: in vivo
[1] = test system: Chilo suppressalis (Striped Rice Stemborer); assay: Example B1: Activity against Chilo suppressalis, artificial diet in 24-well microtiter plates; details: 144 h, application rate 200 ppm, L2 larvae, assessed 6 days after infestation, read-out: control (at least one of mortality, anti-feedant effect, growth inhibition)
Experimental: Example B1: Activity Against Chilo suppressalis (Striped Rice Stemborer)
24-well microtiter plates with artificial diet were treated with aqueous test solutions prepared from 10′000 ppm DMSO stock solutions by pipetting. After drying, the plates were infested with L2 larvae (6-8 per well). The samples were assessed for mortality, anti-feeding effect, and growth inhibition in comparison to untreated samples 6 days after infestation. Control of Chilo suppressalis by a test sample is given when at least one of the categories mortality, anti-feedant effect, and growth inhibition is higher than the untreated sample.

[2] = test system: Diabrotica Balteata (Corn Root Worm); assay: Example B2: Activity against Diabrotica balteata, sprayed maize sprouts on agar; details: 96 h, application rate 200 ppm, L2 larvae, assessed 4 days after infestation, read-out: effect in at least one of the two categories (mortality or growth inhibition)
Experimental: Example B2: Activity Against Diabrotica Balteata (Corn Root Worm)
Maize sprouts placed onto an agar layer in 24-well microtiter plates were treated with aqueous test solutions prepared from 10′000 ppm DMSO stock solutions by spraying. After drying, the plates were infested with L2 larvae (6 to 10 per well). The samples were assessed for mortality and growth inhibition in comparison to untreated samples 4 days after infestation.

[3] = test system: Plutella xylostella (Diamond Back Moth); assay: Example B5: Activity against Plutella xylostella, artificial diet in 24-well microtiter plates; details: 192 h, application rate 200 ppm, eggs, assessed 8 days after infestation, read-out: effect in at least one of the two categories (mortality or growth inhibition)
Experimental: Example B5: Activity Against Plutella xylostella (Diamond Back Moth)
24-well microtiter plates with artificial diet were treated with aqueous test solutions prepared from 10′000 ppm DMSO stock solutions by pipetting. After drying, Plutella eggs were pipetted through a plastic stencil onto a gel blotting paper and the plate was closed with it. The samples were assessed for mortality and growth inhibition in comparison to untreated samples 8 days after infestation.

[4] = test system: Spodoptera littoralis (Egyptian Cotton Leaf Worm); assay: Example B6: Activity against Spodoptera littoralis, sprayed cotton leaf discs on agar; details: foliar, 72 h, application rate 200 ppm, L1 larvae, assessed 3 days after infestation, read-out: control (at least one of mortality, anti-feedant effect, growth inhibition)
Experimental: Example B6: Activity Against Spodoptera littoralis (Egyptian Cotton Leaf Worm)
Cotton leaf discs were placed onto agar in 24-well microtiter plates and sprayed with aqueous test solutions prepared from 10′000 ppm DMSO stock solutions. After drying the leaf discs were infested with five L1 larvae. The samples were assessed for mortality, anti-feeding effect, and growth inhibition in comparison to untreated samples 3 days after infestation. Control of Spodoptera littoralis by a test sample is given when at least one of the categories mortality, anti-feedant effect, and growth inhibition is higher than the untreated sample.

[5] = test system: Myzus persicae (Green peach aphid); assay: Example B4: Activity against Myzus persicae, feeding/contact activity on sunflower leaf discs; details: foliar, 144 h, application rate 200 ppm, aphid population of mixed ages, assessed 6 days after infestation
Experimental: Example B4: Activity against Myzus persicae (Green peach aphid) Feeding/Contact activity Sunflower leaf discs were placed onto agar in a 24-well microtiter plate and sprayed with aqueous test solutions prepared from 10′000 ppm DMSO stock solutions. After drying, the leaf discs were infested with an aphid population of mixed ages. The samples were assessed for mortality 6 days after infestation.

[6] = test system: Euschistus heros (Neotropical Brown Stink Bug); assay: Example B3: Activity against Euschistus heros, sprayed soybean leaves on agar; details: 120 h, application rate 200 ppm, N2 nymphs, assessed 5 days after infestation, read-out: effect in at least one of the two categories (mortality or growth inhibition)
Experimental: Example B3: Activity Against Euschistus heros (Neotropical Brown Stink Bug)
Soybean leaves on agar in 24-well microtiter plates were sprayed with aqueous test solutions prepared from 10′000 ppm DMSO stock solutions. After drying the leaves were infested with N2 nymphs. The samples were assessed for mortality and growth inhibition in comparison to untreated samples 5 days after infestation.

CCS(=O)(=O)c1c(N2Cc3cc4c(cc3C2=O)OC(F)(F)O4)nc2cc(C(C)(F)F)ccn12 [P8, 6-[7-(1,1-difluoroethyl)-3-ethylsulfonyl-imidazo[1,2-a]pyridin-2-yl]-2,2-difluoro-5H-[1,3]dioxolo[4,5-f]isoindol-7-one]
≥ 80%: control (mortality, anti-feedant effect or growth inhibition) at 200 ppm [1] | percent effect (mortality or growth inhibition) at 200 ppm [2] | percent effect (mortality or growth inhibition) at 200 ppm [3] | percent control (mortality, anti-feedant effect or growth inhibition) at 200 ppm [4]

CCS(=O)(=O)c1c(N2Cc3cc4c(cc3C2=O)OC(F)(F)O4)nn2cc(Br)ccc12 [P12, 6-(6-bromo-3-ethylsulfonyl-pyrazolo[1,5-a]pyridin-2-yl)-2,2-difluoro-5H-[1,3]dioxolo[4,5-f]isoindol-7-one]
≥ 80%: control (mortality, anti-feedant effect or growth inhibition) at 200 ppm [1] | percent effect (mortality or growth inhibition) at 200 ppm [2] | mortality at 200 ppm [5] | percent effect (mortality or growth inhibition) at 200 ppm [3] | percent control (mortality, anti-feedant effect or growth inhibition) at 200 ppm [4]

CCS(=O)(=O)c1c(N2Cc3cc4c(cc3C2=O)OC(F)(F)O4)nn2ccc(C(F)(F)F)cc12 [P6, 6-[3-ethylsulfonyl-5-(trifluoromethyl)pyrazolo[1,5-a]pyridin-2-yl]-2,2-difluoro-5H-[1,3]dioxolo[4,5-f]isoindol-7-one]
≥ 80%: control (mortality, anti-feedant effect or growth inhibition) at 200 ppm [1] | percent effect (mortality or growth inhibition) at 200 ppm [2] | percent effect (mortality or growth inhibition) at 200 ppm [3] | percent control (mortality, anti-feedant effect or growth inhibition) at 200 ppm [4]

CCS(=O)(=O)c1c(N2Cc3cc4c(cc3C2=O)OC(F)(F)O4)nc2ccc(C(C)(F)F)cn12 [P7, 6-[6-(1,1-difluoroethyl)-3-ethylsulfonyl-imidazo[1,2-a]pyridin-2-yl]-2,2-difluoro-5H-[1,3]dioxolo[4,5-f]isoindol-7-one]
≥ 80%: control (mortality, anti-feedant effect or growth inhibition) at 200 ppm [1] | percent effect (mortality or growth inhibition) at 200 ppm [2] | percent effect (mortality or growth inhibition) at 200 ppm [3] | percent control (mortality, anti-feedant effect or growth inhibition) at 200 ppm [4]

CCS(=O)(=O)c1c(N2Cc3cc4c(cc3C2=O)OC(F)(F)O4)nn2ccc(Cl)cc12 [P15, 6-(5-chloro-3-ethylsulfonyl-pyrazolo[1,5-a]pyridin-2-yl)-2,2-difluoro-5H-[1,3]dioxolo[4,5-f]isoindol-7-one]
≥ 80%: control (mortality, anti-feedant effect or growth inhibition) at 200 ppm [1] | percent effect (mortality or growth inhibition) at 200 ppm [2] | percent effect (mortality or growth inhibition) at 200 ppm [6] | percent effect (mortality or growth inhibition) at 200 ppm [3] | percent control (mortality, anti-feedant effect or growth inhibition) at 200 ppm [4]

CCS(=O)(=O)c1c(N2Cc3cc4c(cc3C2=O)OC(F)(F)O4)nc2cc(Cl)ccn12 [P13, 6-(7-chloro-3-ethylsulfonyl-imidazo[1,2-a]pyridin-2-yl)-2,2-difluoro-5H-[1,3]dioxolo[4,5-f]isoindol-7-one]
≥ 80%: control (mortality, anti-feedant effect or growth inhibition) at 200 ppm [1] | percent effect (mortality or growth inhibition) at 200 ppm [2] | percent effect (mortality or growth inhibition) at 200 ppm [3] | percent control (mortality, anti-feedant effect or growth inhibition) at 200 ppm [4]

CCS(=O)(=O)c1c(N2Cc3cc4c(cc3C2=O)OC(F)(F)O4)nc2ccc(Cl)cn12 [P11, 6-(6-chloro-3-ethylsulfonyl-imidazo[1,2-a]pyridin-2-yl)-2,2-difluoro-5H-[1,3]dioxolo[4,5-f]isoindol-7-one]
≥ 80%: control (mortality, anti-feedant effect or growth inhibition) at 200 ppm [1] | percent effect (mortality or growth inhibition) at 200 ppm [2] | percent effect (mortality or growth inhibition) at 200 ppm [6] | percent effect (mortality or growth inhibition) at 200 ppm [3] | percent control (mortality, anti-feedant effect or growth inhibition) at 200 ppm [4]

CCS(=O)(=O)c1c(N2Cc3cc4c(cc3C2=O)OC(F)(F)O4)nc2cc(C(F)(F)F)ccn12 [P5, 6-[3-ethylsulfonyl-7-(trifluoromethyl)imidazo[1,2-a]pyridin-2-yl]-2,2-difluoro-5H-[1,3]dioxolo[4,5-f]isoindol-7-one]
≥ 80%: control (mortality, anti-feedant effect or growth inhibition) at 200 ppm [1] | percent effect (mortality or growth inhibition) at 200 ppm [2] | percent effect (mortality or growth inhibition) at 200 ppm [3] | percent control (mortality, anti-feedant effect or growth inhibition) at 200 ppm [4]

CCS(=O)(=O)c1c(N2Cc3cc4c(cc3C2=O)OC(F)(F)O4)nc2ccc(I)cn12 [P17, 6-(3-ethylsulfonyl-6-iodo-imidazo[1,2-a]pyridin-2-yl)-2,2-difluoro-5H-[1,3]dioxolo[4,5-f]isoindol-7-one]
≥ 80%: control (mortality, anti-feedant effect or growth inhibition) at 200 ppm [1] | percent effect (mortality or growth inhibition) at 200 ppm [2] | percent effect (mortality or growth inhibition) at 200 ppm [3] | percent control (mortality, anti-feedant effect or growth inhibition) at 200 ppm [4]

CCS(=O)(=O)c1c(N2Cc3cc4c(cc3C2=O)OC(F)(F)O4)nc2ccc(Br)cn12 [P10, 6-(6-bromo-3-ethylsulfonyl-imidazo[1,2-a]pyridin-2-yl)-2,2-difluoro-5H-[1,3]dioxolo[4,5-f]isoindol-7-one]
≥ 80%: control (mortality, anti-feedant effect or growth inhibition) at 200 ppm [1]

CCS(=O)(=O)c1c(N2Cc3cc4c(cc3C2=O)OC(F)(F)O4)nc2ccc(C(F)(F)F)cn12 [P1, 6-[3-ethylsulfonyl-6-(trifluoromethyl)imidazo[1,2-a]pyridin-2-yl]-2,2-difluoro-5H-[1,3]dioxolo[4,5-f]isoindol-7-one]
≥ 80%: control (mortality, anti-feedant effect or growth inhibition) at 200 ppm [1] | percent effect (mortality or growth inhibition) at 200 ppm [2] | mortality at 200 ppm [5] | percent effect (mortality or growth inhibition) at 200 ppm [3] | percent control (mortality, anti-feedant effect or growth inhibition) at 200 ppm [4]

CCS(=O)(=O)c1c(N2Cc3cc4c(cc3C2=O)OC(F)(F)O4)nn2cc(C(F)(F)F)ccc12 [P3, 6-[3-ethylsulfonyl-6-(trifluoromethyl)pyrazolo[1,5-a]pyridin-2-yl]-2,2-difluoro-5H-[1,3]dioxolo[4,5-f]isoindol-7-one]
≥ 80%: control (mortality, anti-feedant effect or growth inhibition) at 200 ppm [1] | percent effect (mortality or growth inhibition) at 200 ppm [2] | mortality at 200 ppm [5] | percent effect (mortality or growth inhibition) at 200 ppm [3] | percent control (mortality, anti-feedant effect or growth inhibition) at 200 ppm [4]

CCS(=O)(=O)c1c(N2Cc3cc4c(cc3C2=O)OC(F)(F)O4)nn2cc(Cl)ccc12 [P14, 6-(6-chloro-3-ethylsulfonyl-pyrazolo[1,5-a]pyridin-2-yl)-2,2-difluoro-5H-[1,3]dioxolo[4,5-f]isoindol-7-one]
≥ 80%: control (mortality, anti-feedant effect or growth inhibition) at 200 ppm [1] | percent effect (mortality or growth inhibition) at 200 ppm [2] | mortality at 200 ppm [5] | percent effect (mortality or growth inhibition) at 200 ppm [3] | percent control (mortality, anti-feedant effect or growth inhibition) at 200 ppm [4]

CCS(=O)(=O)c1c(N2Cc3cc4c(cc3C2=O)OC(F)(F)O4)nc2cc(Br)ccn12 [P9, 6-(7-bromo-3-ethylsulfonyl-imidazo[1,2-a]pyridin-2-yl)-2,2-difluoro-5H-[1,3]dioxolo[4,5-f]isoindol-7-one]
≥ 80%: control (mortality, anti-feedant effect or growth inhibition) at 200 ppm [1] | percent effect (mortality or growth inhibition) at 200 ppm [2] | percent effect (mortality or growth inhibition) at 200 ppm [3] | percent control (mortality, anti-feedant effect or growth inhibition) at 200 ppm [4]

CCS(=O)(=O)c1cc2ccccc2nc1N1Cc2cc3c(cc2C1=O)OC(F)(F)O3 [P2, 6-(3-ethylsulfonyl-2-quinolyl)-2,2-difluoro-5H-[1,3]dioxolo[4,5-f]isoindol-7-one]
≥ 80%: percent effect (mortality or growth inhibition) at 200 ppm [2] | percent effect (mortality or growth inhibition) at 200 ppm [6] | mortality at 200 ppm [5] | percent effect (mortality or growth inhibition) at 200 ppm [3] | percent control (mortality, anti-feedant effect or growth inhibition) at 200 ppm [4]

CCS(=O)(=O)c1c(N2Cc3cc4c(cc3C2=O)OC(F)(F)O4)nc2cc(I)ccn12 [P16, 6-(3-ethylsulfonyl-7-iodo-imidazo[1,2-a]pyridin-2-yl)-2,2-difluoro-5H-[1,3]dioxolo[4,5-f]isoindol-7-one]
≥ 80%: control (mortality, anti-feedant effect or growth inhibition) at 200 ppm [1] | percent effect (mortality or growth inhibition) at 200 ppm [2] | percent effect (mortality or growth inhibition) at 200 ppm [3] | percent control (mortality, anti-feedant effect or growth inhibition) at 200 ppm [4]
